Source: PubChem BioAssay AID1963843 (Molecular Pharmacology Branch, DTP, NCI, 2024)

System: 616215-338-R-J1-PDC complex spheroid viability
Test: Anticancer human tumor 616215-338-R-J1-PDC patient-derived colon adenocarcinoma cell line growth inhibition [POLQ]
Conditions: for IC50: curve of first compound; for viability, T/C: stronger effect = lower value
Outline: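 PDC + HUVEC + MSC complex spheroids; POLQ inhibitors ± partner drugs; top conc. at/near clinical Cmax, else 10 microM (SN-38 1 microM), half-log dilutions; 37 degrees C, 5% CO2.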

[1] = second compound 0.0316 µM, first compound 0.0316 µM
[2] = second compound 0.0316 µM, first compound 0.1 µM
[3] = second compound 0.0316 µM, first compound 0.316 µM
[4] = second compound 0.0316 µM, first compound 1 µM
[5] = second compound 0.0316 µM, first compound 3.16 µM
[6] = second compound 0.0316 µM, first compound 10 µM
[7] = second compound 0.1 µM, first compound 0.0316 µM
[8] = second compound 0.1 µM, first compound 0.1 µM
[9] = second compound 0.1 µM, first compound 0.316 µM
[10] = second compound 0.1 µM, first compound 1 µM
[11] = second compound 0.1 µM, first compound 3.16 µM
[12] = second compound 0.1 µM, first compound 10 µM
[13] = second compound 0.316 µM, first compound 0.0316 µM
[14] = second compound 0.316 µM, first compound 0.1 µM
[15] = second compound 0.316 µM, first compound 0.316 µM
[16] = second compound 0.316 µM, first compound 1 µM
[17] = second compound 0.316 µM, first compound 3.16 µM
[18] = second compound 0.316 µM, first compound 10 µM
[19] = second compound 1 µM, first compound 0.0316 µM
[20] = second compound 1 µM, first compound 0.1 µM
[21] = second compound 1 µM, first compound 0.316 µM
[22] = second compound 1 µM, first compound 1 µM
[23] = second compound 1 µM, first compound 3.16 µM
[24] = second compound 1 µM, first compound 10 µM
[25] = second compound 3.16 µM, first compound 0.0316 µM
[26] = second compound 3.16 µM, first compound 0.1 µM
[27] = second compound 3.16 µM, first compound 0.316 µM
[28] = second compound 3.16 µM, first compound 1 µM
[29] = second compound 3.16 µM, first compound 3.16 µM
[30] = second compound 3.16 µM, first compound 10 µM
[31] = second compound 10 µM, first compound 0.0316 µM
[32] = second compound 10 µM, first compound 0.1 µM
[33] = second compound 10 µM, first compound 0.316 µM
[34] = second compound 10 µM, first compound 1 µM
[35] = second compound 10 µM, first compound 3.16 µM
[36] = second compound 10 µM, first compound 10 µM
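Further: spheroids exposed to compounds for one week before readout.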
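Wherever viability, T/C is given: percent viability relative to DMSO vehicle wells taken as 100%.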

CCCS(=O)(=O)Nc1ccc(F)c(C(=O)c2c[nH]c3ncc(-c4ccc(Cl)cc4)cc23)c1F + Cc1cccc(N(C)C(=O)C2C(O)CCN2c2nc(C)cc(C(F)(F)F)c2C#N)c1
IC50 (second compound 0.0316 µM): 5.76 µM
IC50 (second compound 0.1 µM): 5.71 µM
IC50 (second compound 0.316 µM): 5.24 µM
IC50 (second compound 1 µM): 5.51 µM
IC50 (second compound 3.16 µM): 5.31 µM
IC50 (second compound 10 µM): 4.29 µM
viability, T/C [1]: 114%
viability, T/C [2]: 95.5%
viability, T/C [3]: 101%
viability, T/C [4]: 105%
viability, T/C [5]: 89.5%
viability, T/C [6]: 13.4%
viability, T/C [7]: 115%
viability, T/C [8]: 109%
viability, T/C [9]: 101%
viability, T/C [10]: 108%
viability, T/C [11]: 91%
viability, T/C [12]: 11.2%
viability, T/C [13]: 112%
viability, T/C [14]: 107%
viability, T/C [15]: 99%
viability, T/C [16]: 97.5%
viability, T/C [17]: 83.4%
viability, T/C [18]: 9.28%
viability, T/C [19]: 99.5%
viability, T/C [20]: 101%
viability, T/C [21]: 104%
viability, T/C [22]: 105%
viability, T/C [23]: 86.9%
viability, T/C [24]: 10.2%
viability, T/C [25]: 114%
viability, T/C [26]: 98.6%
viability, T/C [27]: 99.4%
viability, T/C [28]: 101%
viability, T/C [29]: 83.2%
viability, T/C [30]: 10%
viability, T/C [31]: 105%
viability, T/C [32]: 100%
viability, T/C [33]: 92.7%
viability, T/C [34]: 98.1%
viability, T/C [35]: 65.8%
viability, T/C [36]: 7.05%

O=C(c1cc(Cc2n[nH]c(=O)c3ccccc23)ccc1F)N1CCN(C(=O)C2CC2)CC1 + Nc1ccc(C#CCN(C(=O)Cc2ncc(C(F)(F)F)cc2C(F)(F)F)c2ccc(F)cc2)nn1
IC50 (second compound 0.0316 µM): > 10 µM
IC50 (second compound 0.1 µM): > 10 µM
IC50 (second compound 0.316 µM): 8.94 µM
IC50 (second compound 1 µM): > 10 µM
IC50 (second compound 3.16 µM): > 10 µM
IC50 (second compound 10 µM): 9.49 µM
viability, T/C [1]: 102%
viability, T/C [2]: 99%
viability, T/C [3]: 113%
viability, T/C [4]: 99.9%
viability, T/C [5]: 88.5%
viability, T/C [6]: 55.5%
viability, T/C [7]: 110%
viability, T/C [8]: 94.7%
viability, T/C [9]: 104%
viability, T/C [10]: 94.1%
viability, T/C [11]: 88.6%
viability, T/C [12]: 66.9%
viability, T/C [13]: 105%
viability, T/C [14]: 103%
viability, T/C [15]: 92.6%
viability, T/C [16]: 88.3%
viability, T/C [17]: 102%
viability, T/C [18]: 44.8%
viability, T/C [19]: 99.8%
viability, T/C [20]: 97.6%
viability, T/C [21]: 94.4%
viability, T/C [22]: 103%
viability, T/C [23]: 80%
viability, T/C [24]: 55%
viability, T/C [25]: 112%
viability, T/C [26]: 107%
viability, T/C [27]: 99.6%
viability, T/C [28]: 93.3%
viability, T/C [29]: 98.1%
viability, T/C [30]: 54.1%
viability, T/C [31]: 96.3%
viability, T/C [32]: 88.7%
viability, T/C [33]: 80.7%
viability, T/C [34]: 79.7%
viability, T/C [35]: 81.3%
viability, T/C [36]: 47.9%

C=CCn1c(=O)c2cnc(Nc3ccc(N4CCN(C)CC4)cc3)nc2n1-c1cccc(C(C)(C)O)n1 + Nc1ccc(C#CCN(C(=O)Cc2ncc(C(F)(F)F)cc2C(F)(F)F)c2ccc(F)cc2)nn1
IC50 (second compound 0.0316 µM): 0.43 µM
IC50 (second compound 0.1 µM): 0.285 µM
IC50 (second compound 0.316 µM): 0.302 µM
IC50 (second compound 1 µM): 0.365 µM
IC50 (second compound 3.16 µM): 0.359 µM
IC50 (second compound 10 µM): 0.244 µM
viability, T/C (second compound 0.0316 µM, first compound 0.00316 µM): 102%
viability, T/C (second compound 0.0316 µM, first compound 0.01 µM): 98.7%
viability, T/C [1]: 98.4%
viability, T/C [2]: 96.9%
viability, T/C [3]: 55.4%
viability, T/C [4]: 35.4%
viability, T/C (second compound 0.1 µM, first compound 0.00316 µM): 102%
viability, T/C (second compound 0.1 µM, first compound 0.01 µM): 89.1%
viability, T/C [7]: 96.8%
viability, T/C [8]: 97.1%
viability, T/C [9]: 45.3%
viability, T/C [10]: 29.1%
viability, T/C (second compound 0.316 µM, first compound 0.00316 µM): 99.8%
viability, T/C (second compound 0.316 µM, first compound 0.01 µM): 111%
viability, T/C [13]: 107%
viability, T/C [14]: 83%
viability, T/C [15]: 49.9%
viability, T/C [16]: 28.1%
viability, T/C (second compound 1 µM, first compound 0.00316 µM): 98.9%
viability, T/C (second compound 1 µM, first compound 0.01 µM): 103%
viability, T/C [19]: 100%
viability, T/C [20]: 96.8%
viability, T/C [21]: 53.2%
viability, T/C [22]: 27.6%
viability, T/C (second compound 3.16 µM, first compound 0.00316 µM): 90%
viability, T/C (second compound 3.16 µM, first compound 0.01 µM): 97.9%
viability, T/C [25]: 94.6%
viability, T/C [26]: 87.9%
viability, T/C [27]: 52.9%
viability, T/C [28]: 27%
viability, T/C (second compound 10 µM, first compound 0.00316 µM): 79%
viability, T/C (second compound 10 µM, first compound 0.01 µM): 91.4%
viability, T/C [31]: 91.1%
viability, T/C [32]: 79.3%
viability, T/C [33]: 41.4%
viability, T/C [34]: 26.5%
